Test results as given in the NIST ThermoML archive (doi:10.1021/je4008298).
Numbers after ± are expanded uncertainties.

Experiment: mn = molality of the nth substance listed, in mol/kg
Conditions: for viscosity / mass density: 101.3 kPa, Liquid; for viscosity: Capillary tube (Ostwald / Ubbelohde) method; for surface tension liquid-gas: Pendant drop shape

NC(CO)CO [2-amino-1,3-propanediol] + O
Conditions	mass density, 293.2 K [kg/m3]	mass density, 300.2 K [kg/m3]	mass density, 307.2 K [kg/m3]	mass density, 313.2 K [kg/m3]	surface tension liquid-gas, 298.2 K [mN/m]	surface tension liquid-gas, 313.2 K [mN/m]	viscosity, 293.2 K [mPa·s]	viscosity, 300.2 K [mPa·s]	viscosity, 307.2 K [mPa·s]	viscosity, 313.2 K [mPa·s]
m1 = 0.953	1012.63 ± 0.72	1010.28 ± 0.77	1008.07 ± 0.82	1005.49 ± 0.86	–	–	1.244 ± 0.018	1.056 ± 0.018	0.896 ± 0.017	0.8 ± 0.017
m1 = 0.959	–	–	–	–	71.7 ± 0.6	69.4 ± 0.6	–	–	–	–
m1 = 2.052	1026.97 ± 0.74	1024.18 ± 0.79	1021.61 ± 0.84	1019.22 ± 0.88	–	–	1.606 ± 0.02	1.335 ± 0.019	1.118 ± 0.018	0.983 ± 0.017
m1 = 2.151	–	–	–	–	71.3 ± 0.6	69 ± 0.6	–	–	–	–
m1 = 3.459	–	–	–	–	70.8 ± 0.6	68.6 ± 0.6	–	–	–	–
m1 = 3.464	1041.67 ± 0.76	1038.8 ± 0.81	1036.8 ± 0.86	1033.49 ± 0.91	–	–	2.157 ± 0.024	1.769 ± 0.021	1.458 ± 0.02	1.275 ± 0.018
m1 = 4.693	1052.77 ± 0.79	1050.01 ± 0.83	1047.38 ± 0.88	1044.53 ± 0.92	–	–	2.784 ± 0.027	2.261 ± 0.024	1.845 ± 0.022	1.588 ± 0.02
m1 = 4.745	–	–	–	–	70.4 ± 0.6	68.3 ± 0.6	–	–	–	–
